Measurements taken from PMC10711279 (Frontiers in Pharmacology, 2023).

Assays:
[1] = in vivo; cited from earlier work
[2] = ref Vogt et al., 2023; cited from earlier work
[3] = Blood plasma levels (LC-MS/MS) after DMT/harmine administration
Experimental: Blood samples were collected from the left antecubital vein at −30 (baseline), −15, 0, 15, 30, 45, 60, 90, 120, 180, 240, 300 and 360 min after the first DMT administration for analysis of blood plasma levels of harmine, DMT and the two major DMT metabolites 3-indole acetic acid (3-IAA) and N-methyl-tryptamine (NMT). […] Blood samples were immediately centrifuged for 10 min at 2000 RCF. Then, plasma was transferred to Eppendorf tubes, shock-frozen in liquid nitrogen (∼-196°C), and stored at −80°C until assayed.
For the sample preparation 200 µL of plasma were spiked with 50 µL internal standard (IS) mixture (40 ng/mL DMT-d6 and harmine-d3) and 50 µL methanol (MeOH). Proteins were precipitated by adding 400 µL of acetonitrile (ACN). The samples were shaken for 10 min and centrifuged for 5 min at 10,000 rpm. 350 μL of the supernatant was transferred into an auto-sampler vial, evaporated to dryness under a gentle stream of nitrogen at room temperature and reconstituted in 100 µL eluent-mixture (98:2, v/v). External calibrator and quality control (QC) samples were prepared accordingly, replacing the MeOH with a calibrator or QC solution mixtures. Calibrator and QC samples containing 3-IAA were prepared separately, replacing plasma with water. The calibration ranges were 0.5–500 ng/mL for DMT and DMT-N-oxide, 2.5–120 ng/mL for harmine, 1–80 ng/mL for harmol, 0.015–10 ng/mL for NMT and 35–3,000 ng/mL for 3-IAA.
Samples were analyzed on an ultra-high performance liquid chromatography (UHPLC) system (Thermo Fisher, San Jose, CA) coupled to a linear ion trap quadrupole mass spectrometer 5,500 (Sciex, Darmstadt, Germany). The mobile phases consisted of a mixture of water (eluent A) and ACN (eluent B), both containing 0.1% formic acid (v/v). Using a Kinetex C18 column 50 × 2.1 mm, 2.6 µm (Phenomenex, Aschaffenburg, Germany), the flow rate was set to 0.5 mL/min with the following gradient: starting conditions 98% eluent A, decreasing to 70% within 4 min, followed by a quick decrease to 5% within 1 min, holding for 0.5 min and returning to starting conditions for 1.5 min, resulting in a total runtime of 7 min. The mass spectrometer was operated in positive electrospray ionization mode with scheduled multiple reaction monitoring. The following transitions of precursor ions to product ions were selected as quantifier ions: DMT m/z 189→115, DMT-N-oxide m/z 205→117, harmine m/z 213→169, harmol m/z 199→131, NMT m/z 175→144 and 3-IAA m/z 176→103.

[4] = parameters: method as in Turner and Merlis, 1959; settings: dose range 5–20 mg; ref Turner and Merlis, 1959; cited from earlier work
[5] = day 1, 250 mg oral harmine + 30 mg oral DMT
[6] = day 2, 250 mg oral harmine + 50 mg oral DMT
[7] = day 3, 150 mg buccal harmine + max 50 mg intranasal DMT
[8] = day 4, 200 mg buccal harmine + max 90 mg intranasal DMT

SMILES	Duration of action [1] [h]	Peak of the mean plasma concentrations [3, 5] [ng/mL]	Peak of the mean plasma concentrations [3, 6] [ng/mL]	Peak of the mean plasma concentrations [3, 7] [ng/mL]	Peak of the mean plasma concentrations [3, 8] [ng/mL]	also measured
CCN(CC)C(=O)[C@@H]1C=C2c3cccc4[nH]cc(c34)C[C@H]2N(C)C1 [LSD]	10 to 12					
CN(C)CCc1c[nH]c2ccccc12 [DMT, N,N-dimethyltryptamine]		27.9 ± 15.5	23.6 ± 11.9	23.9 ± 5.0	33.1 ± 9.3	Plasma elimination half-life [2]: 5 to 10 min
COc1ccc2c(c1)[nH]c1c(C)nccc12 [harmine]		125.5 ± 111.2	104.8 ± 100.5	93.9 ± 33.5	132.4 ± 111.6	Tmax ([3]; human, plasma, po): 1 to 4.5 h
CN(C)CCc1c[nH]c2ccccc12 [DMT freebase, N,N-dimethyltryptamine]						Effect of intranasal administration [4]: ineffective
CN(C)CCc1c[nH]c2cccc(OP(=O)(O)O)c12 [psilocybin]	4 to 6					
